Experimental data reported in patent US20110104144A1, “METHODS FOR TREATING CUTANEOUS LUPUS USING AMINOISOINDOLINE COMPOUNDS” (CELGENE CORPORATION, priority 2005, published 2011).

Assays:
CD44 = assay: HUVEC cell surface expression of CD44 by flow cytometry; type: cell-based, Human; settings: 10 μM, FIG. 4
Protocol: (§1) A) Materials. Human Umbilical Vein Endothelial Cells (HUVEC) sent from LifeBank, were tested in Experiments A-K with several adhesion molecules. The adhesion molecules tested were CD51/CD61FITC (obtained from BD PharMingen, San Diego, Calif.; Catalog No. 555505), ICAM-1 PE also known as CD54 (obtained from BD PharMingen, San Diego, Calif.; Catalog No. 555511), ICAM-2 also known as CD102 (obtained from Research Diagnostics Inc., Concord, Mass.; Catalog No. RDI-CBL539FT), VCAM-1 (obtained from BD PharMingen, San Diego, Calif.; Catalog No. 555647), P-Selectin FITC (obtained from R&D Systems, Inc., Minneapolis, Minn.; Catalog No. BBA34), E-Selectin FITC (obtained from R&D Systems, Inc., Minneapolis, Minn.; Catalog No. BBA21), HLA Class I FITC (obtained from BD PharMingen, San Diego, Calif.; Catalog No. 555553), HLA Class II PE (obtained from BD PharMingen, San Diego, Calif.; Catalog No. 555558), CD44 FITC (obtained from BD PharMingen, San Diego, Calif.; Catalog No. 347943), CD144 (Cadherin VE) (obtained from CHEMICON International, Inc., Temecula, Calif.; Catalog No. MAB1989), IgG2a FITC (obtained from BD PharMingen, San Diego, Calif.; Cat #556652), Ms IgG2a (obtained from CHEMICON International, Inc., Temecula, Calif.; Cat. No. PP102), IgG1 FITC (obtained from BD PharMingen, San Diego, Calif.; Cat. No. 349041) and IgG1 PE (obtained from BD PharMingen, San Diego, Calif.; Cat. No. 349043).
(§2) Compound (1) ((+)-2-[1-(3-ethoxy-4-methoxyphenyl)-2-methylsulfonylethyl]-4-acetylaminoisoindoline-1,3-dione) and Compound (2) (4-(amino)-2-(2,6-dioxo(3-piperidyl))-isoindoline-1,3-dione) were obtained according to the preparation procedures disclosed herein. 16,16-Dimethyl-PGE2 (hereinafter PGE2) was obtained from BIOMOL International, L.P. (Plymouth Meeting, Pa.; Catalog No. PG-021). TNF-αwas obtained from Pierce Biotechnology (Rockford, Ill.; Catalog No. RTNFA 10).
(§3) B) Methods. […]

VE-Cadherin = assay: HUVEC cell surface expression of VE-Cadherin (CD144) by flow cytometry; type: cell-based, Human; settings: 10 μM, FIG. 4
Protocol: as §1, §2, §3

E-Selectin [1] = assay: HUVEC cell surface expression of E-Selectin by flow cytometry; type: cell-based, Human; settings: 10 μM; for E-Selectin cell surface expression: unstimulated, FIG. 2
Protocol: as §1, §2
(§4) B) Methods. HUVEC's were plated on 6-well plates at a concentration of 1×10^5 cells/well in 3 ml EBM® endothelial basal media (obtained from Cambrex Corporation, East Rutherford, N.J.; Catalog No. CC-3121) and singlequots (obtained from Cambrex Corporation, East Rutherford, N.J.; Catalog No. CC-4133). The cells were incubated overnight in a 37° C. and 5% CO2 humidified incubator to allow cells to attach. The old media was removed in next day and replaced with 3 ml fresh EBM® endothelial basal media. Then, samples of 3 μl of 10 mM of Compound (1), Compound (2), PGE2 and a mixture of Compound (1) and PGE2 were added separately to each well of the plates in duplicate to give a final concentration of 10 μM. An unstimulated DMSO control and a TNF-α-stimulated control were also added in duplicate. The plates were incubated in a 37° C. and 5% CO2 humidified incubator for 1 hr. […] The plates were incubated overnight in a 37° C. and 5% CO2 humidified incubator. The cells were also tested without TNF-α. The media was removed in the next day and each well was washed with 3 ml of phosphate buffered saline (PBS). Then, 3 ml of PBS containing 1 mM of EDTA (ethylenediaminetetraacetate) was added to each well to allow the cells to detach. Once the cells detached, they were gently scraped and placed in 4.5 ml Falcon tubes. The tubes were then centrifuged at 1200 RPM for 8 minutes at 4° C. The supernatant was carefully removed. Next, 50 μl of PBS-FACS buffer (5% fetal bovine serum (FBS), 0.02% sodium azide in PBS) and 20 μl of antibodies were added to all tubes as follows:
(§5) After the antibodies were added, the tubes were incubated on ice for 30 minutes and covered with foil. Then, the tubes were centrifuged at 1200 RPM for 8 minutes at 4° C. The supernatant was carefully removed. The cells were re-suspended in 2 ml of PBS-FACS buffer and centrifuged again as above. The supernatant was carefully removed again and the cells were re-suspended in 500 μl of PBS-FACS buffer. The tubes were then analyzed using a flow cytometer. […]

P-Selectin = assay: HUVEC cell surface expression of P-Selectin by flow cytometry; type: cell-based, Human; settings: 10 μM; for increase of TNF-α-induced cell expression of P-Selectin above baseline: TNF-α (1 ng/ml) stimulated, FIG. 3; for inhibition of P-Selectin expression: unstimulated, FIG. 2
Protocol: as §1, §2, §4, §5

CD51/61 = assay: HUVEC cell surface expression of CD51/61 by flow cytometry; type: cell-based, Human; settings: unstimulated, 10 μM, FIG. 1
Protocol: as §1, §2, §3

TNF-α = assay: Ultraviolet B-induced TNF-alpha production by human keratinocytes (HEKn cells), TNF-α ELISA; type: cell-based
Protocol: Cutaneous lupus patients often experience disease exacerbation when exposed to ultraviolet (UV) light. This is thought to be due to UVB-induced TNF-α production by keratinocytes. […] In vitro study for cutaneous lupus was performed to investigate how the compounds of the invention affect TNF-α production in keratinocytes.
Human neonatal foreskin epidermal keratinocytes (HEKn cells) were obtained from Cascade Biologics and were grown in serum-free medium supplemented with growth factors. When cells reached 80% confluency, they were trypsinized and plated at 1×10^5 cells/well in 6 well dishes. Plates were incubated for 24 hours to allow cell adhesion. To optimize conditions for the release of TNF-α, cells were treated with various degrees of exposure to UVB radiation (1, 4 and 24 hours). Supernatants were then collected and tested in the TNF-α ELISA.
Supernatants were collected and tested in the TNF-α ELISA at 1 Hour (bars with no pattern), 4 Hours (lined bars), or 24 Hours (checkered bars) after exposure. Results are the average of two experiments. The results shown in FIG. 7 indicate that supernatants collected 24 hours after HEKn cells were exposed to UVB had the highest levels of TNF-α. After exposure to 10, 50, or 100 mJ/cm^2, cells remained attached to the wells and no cell damage was observed. The 300 mJ/cm^2 UVB exposure was too high for the HEKn cells and many cells were damaged and detached from the bottom of the wells.
Cells were treated for 4 hours with (+)-2-[1-(3-ethoxy-4-methoxyphenyl)-2-methylsulfonylethyl]-4-acetylaminoisoindoline-1,3-dione (compound named 10004), or cyclopropyl {2-[(1S)-1-(3-ethoxy-4-methoxyphenyl)-2-(methylsulfonyl)ethyl]-3-oxoisoindolin-4-yl}carboxamide (compound named 11050) at 0.1 μM, 1 μM, or 10 μM. Medium was aspirated the cells washed and then exposed to 50 mJ/cm^2 UVB radiation. Fresh medium was added and the cells were incubated for 24 hours. Supernatents were removed and tested in the TNF-α ELISA kit from Pierce Biotechnology. […] (FIG. 8). […] (FIG. 8).
In other experiments, cells were treated for 4 hours with 3-(4-amino-1-oxo-1,3-dihydro-isoindol-2-yl)-piperidine-2,6-dione (compound named 5013), (+)-2-[1-(3-ethoxy-4-methoxyphenyl)-2-methylsulfonylethyl]-4-acetylaminoisoindoline-1,3-dione (compound named 10004) or compound named 16057, at 0.1 μM or 1 μM. […] (FIG. 9). […] (FIG. 9).

ICAM-1 = assay: HUVEC cell surface expression of ICAM-1 by flow cytometry; type: cell-based, Human; settings: TNF-α stimulated, 10 μM, FIG. 5
Protocol: (§6) A) Materials. Human Umbilical Vein Endothelial Cells (HUVEC) sent from LifeBank, were tested in Experiments A-K with several adhesion molecules. […]

VCAM = assay: HUVEC cell surface expression of VCAM by flow cytometry; type: cell-based, Human; settings: TNF-α stimulated, 10 μM, FIG. 5
Protocol: as §6

E-Selectin [2] = assay: E-Selectin cell surface expression in HUVEC detected by ELISA; type: cell-based, Human; settings: HUVEC, 0.25, 0.5 and 1 ng/ml of TNF-α, 10 μM, FIG. 6
From the text: In this assay, the mixture of Compound (1) and PGE2 appeared to work synergistically.

[3] = TNF-α (1 ng/ml) stimulated, FIG. 3
[4] = HEKn cells treated 4 hours at 0.1 μM, 1 μM, or 10 μM, 50 mJ/cm^2 UVB, 24 hours, FIG. 8

Row | Structure (SMILES) | inhibition of TNF-α-stimulated cell surface expression of CD44 (CD44) | TNF-α-stimulated cell surface expression of VE-Cadherin (VE-Cadherin) | E-Selectin cell surface expression (E-Selectin [1]) | increase of TNF-α-induced cell expression of P-Selectin above baseline (P-Selectin) | inhibition of P-Selectin expression (P-Selectin) | CD51/61 cell surface expression compared to untreated conditions (CD51/61) | levels of TNF-α released after UVB exposure (TNF-α; [4]) | inhibition of TNF-α-induced E-Selectin expression (E-Selectin [1]; [3]) | other results
1 | CCOc1cc(C(CS(C)(=O)=O)N2C(=O)c3cccc(NC(C)=O)c3C2=O)ccc1OC (single isomer, unassigned; (+)) [Compound (1), (+)-2-[1-(3-ethoxy-4-methoxyphenyl)-2-methylsulfonylethyl]-4-acetylaminoisoindoline-1,3-dione] | approximately 30% | unaffected | inhibited | 40% | approximately 55% | unaffected | dose dependent decrease | – | TNF-α-stimulated cell surface expression of E-Selectin (E-Selectin [1]; [3]): unaffected; increase of P-Selectin cell surface expression (P-Selectin; TNF-α stimulated, FIG. 5): approximately 35%; levels of TNF-α released after UVB exposure (TNF-α; HEKn cells treated 4 hours at 0.1 μM or 1 μM, UVB, FIG. 9): dose dependent decrease; TNF-α levels after UVB exposure with the 10 μM treatment (TNF-α; HEKn cells treated 4 hours at 10 μM, 50 mJ/cm^2 UVB, 24 hours, FIG. 8): TNF-α levels similar to cells not treated with radiation; increase of ICAM-1 cell surface expression (ICAM-1): approximately 35%; decrease of VCAM expression (VCAM): 30%
2 | Nc1cccc2c1CN(C1CCC(=O)NC1=O)C2=O (stereo not drawn) [Compound 5013, 3-(4-amino-1-oxo-1,3-dihydro-isoindol-2-yl)-piperidine-2,6-dione] | – | – | – | – | – | – | – | – | TNF-α levels after UVB exposure with the 0.1 μM treatment (TNF-α; HEKn cells treated 4 hours at 0.1 μM, UVB, FIG. 9): TNF-α levels lower than cells not treated with radiation
3 | CCOc1cc([C@@H](CS(C)(=O)=O)N2Cc3cccc(NC(=O)C4CC4)c3C2=O)ccc1OC [Compound 11050, cyclopropyl {2-[(1S)-1-(3-ethoxy-4-methoxyphenyl)-2-(methylsulfonyl)ethyl]-3-oxoisoindolin-4-yl}carboxamide] | – | – | – | – | – | – | dose dependent decrease | – | –
4 | Nc1cccc2c1C(=O)N(C1CCC(=O)NC1=O)C2=O (stereo not drawn) [Compound (2), 4-(amino)-2-(2,6-dioxo(3-piperidyl))-isoindoline-1,3-dione] | approximately 30% | unaffected | inhibited | > 2 fold | ~35% | unaffected | – | approximately 20% | TNF-α-stimulated E-Selectin cell surface expression (ELISA) (E-Selectin [2]): inhibitory effect; increase of P-Selectin expression (P-Selectin; TNF-α stimulated, FIG. 5): ~2 fold
5 | CCCCC(C)(C)[C@H](O)/C=C/[C@H]1[C@H](O)CC(=O)[C@@H]1C/C=C\CCCC(=O)O [PGE2, 16,16-Dimethyl-PGE2, reference compound] | – | unaffected | – | – | – | – | – | 50% | TNF-α-stimulated cell surface expression of CD44 (CD44): no detectable effects; cell surface expression of E-Selectin (E-Selectin [1]; TNF-α stimulated, FIG. 5): significantly decreased; reduction in the CD51/61 cell surface expression (CD51/61): 20%; cell surface expression of VCAM (VCAM): significantly decreased
